Results reported in patent US5856350A, “3-phenyl-1,4-dialkyl-1,2,4-triazolium salts and their use as antidepressants” (Hoechst Marion Roussel, Inc., priority 1996, dated 1999).
Like-named read-outs stand apart in the source and are kept apart here.

Columns and labels:
LD50 = settings: in vivo; Table I; species and route not given
Text: The results of testing a number of compounds of formula I for the effects summarized above, as well as their LD50, are summarized in Table I.

reserpine-induced ptosis = experiment: Prevention of reserpine-induced ptosis in mice; assay type: in vivo; settings: Mus musculus, iv, reserpine 2 mg/kg i.v.
Procedure: In this assay, test groups of weighed mice are housed individually in wire mesh cages and administered test compound or vehicle. At a selected time thereafter, reserpine is administered as a 0.2 mg/ml solution in dilute acetic acid at a dose of 2 mg/kg intravenously into a tail vein. In each assay the animals are examined individually in a Plexiglas® cylinder 90 minutes later. Prevention or delay in ptosis is considered significant if the average closure of both eyes is less than 50% after observing for 30 seconds.

[1] = tested on: Ro 4-1284-induced hypothermia; experiment: Antagonism to Ro 4-1284-induced hypothermia; assay type: in vivo; settings: male mice, Ro 4-1284 20 mg/kg i.p.; for ED50: Mus musculus, ip
Procedure: Another assay utilized to evaluate antidepressant activity is testing for the antagonism to Ro 4-1284*--induced hypothermia. (*Niemegeers, Carlos, J. E. "Antagonism of Reserpine--Like Activity", edited by S. Fielding and Lal, published by Futura, pg. 73-98.) In this test, groups of male mice are weighed and housed individually in wire mesh cages. The rectal temperature of each mouse is recorded and the test compound or vehicle is then administered. […] Mice are then placed in a cold room (36° F.) for 30 minutes, and then returned to room temperature for 30 minutes. At this time (60 minutes after Ro 4-1284 administration) the rectal temperature of each mouse is again recorded. […] The final temperatures of control groups of ten Ro 4-1284-treated mice from a number of experiments are combined to form an "historic control" of 100 mice. This control is updated periodically by replacement of the oldest data.

[2] = tested on: depression; neurodegeneration; settings: prior art compound; cited from earlier work
[3] = Metabolite identification in the urine of test animals
[4] = Table I, pre-treatment time and route of test compound not given, read-out: Reserpine-Induced Ptosis ED50
[5] = Table I, two determinations listed separately where marked *, read-out: Ro 4-1284 Induced Hypothermia ED50
[6] = 1 h, 60 minute pre-treatment time, read-out: ED50 for prevention of reserpine-induced ptosis
[7] = 1 h, 60 minute pre-treatment time, i.p., read-out: ED50 for antagonism of Ro 4-1284-induced hypothermia

Cn1c[n+](C)nc1-c1ccc(Br)cc1 [Rn 4-Br--]
LD50 (LD50): 200 to 400 mg/kg | ED50 (reserpine-induced ptosis; [4]): 0.23 mg/kg | ED50 [1, 5]: 0.81 mg/kg

COc1ccccc1-c1n[n+](C)cn1C [2-CH3 O--]
LD50 (LD50): 50 to 100 mg/kg | ED50 (reserpine-induced ptosis; [4]): > 12.5 mg/kg | ED50 [1, 5]: > 3.12 mg/kg

CN(C)CCCN1c2ccccc2CCc2ccccc21 [imipramine, reference compound]
ED50 (reserpine-induced ptosis; [6]): 4.89 mg/kg | ED50 [1, 7]: 1.8 mg/kg

Cn1c[n+](C)nc1-c1ccc(I)cc1 [Rn 4-I--]
LD50 (LD50): 100 to 200 mg/kg | ED50 (reserpine-induced ptosis; [4]): 2.82 mg/kg | ED50 [1, 5]: > 6.25 mg/kg

Cn1c[n+](C)nc1-c1c(F)cccc1F [2,6-F2 --]
LD50 (LD50): 100 to 200 mg/kg | ED50 (reserpine-induced ptosis; [4]): 5.34 mg/kg | ED50 [1, 5]: 0.58 mg/kg

CNCCCN1c2ccccc2CCc2ccccc21 [desipramine, reference compound]
ED50 [1, 7]: 0.1 mg/kg

Cn1nc(-c2cccc(F)c2)n(C)c1=S [5-(3-fluorophenyl)-2,4-dimethyl-3H-1,2,4-triazole-3-thione]
known antidepressant and neuroprotective activity [2]: antidepressant activity as well as activity in tests indicative of protection from neurodegeneration

Cn1c[n+](C)nc1-c1ccccc1F [Rn 2-F--]
LD50 (LD50): 100 to 200 mg/kg | ED50 (reserpine-induced ptosis; [4]): 0.28 mg/kg | ED50 [1, 5]: 0.74 mg/kg | Ro 4-1284 Induced Hypothermia ED50 ([1]; Table I, two determinations listed separately where marked *, 20 mg/kg): 0.58 mg/kg

CC(Cc1ccccc1)NN (stereo not drawn) [catron, reference compound]
ED50 [1, 7]: 0.7 mg/kg

Cn1c[n+](C)nc1-c1cccc(F)c1 [3-(3-fluorophenyl)-1,4-dimethyl-1,2,4-triazolium ion]
urinary metabolite of 5-(3-fluorophenyl)-2,4-dimethyl-3H-1,2,4-triazole-3-thione [3]: identified in the urine of test animals as a metabolite

Cn1c[n+](C)nc1-c1ccc(Cl)cc1 [Rn 4-Cl--, 3-(4-chlorophenyl)-1,4-dimethyl-1,2,4-triazolium hydrosulfate]
LD50 (LD50): 100 to 200 mg/kg | ED50 (reserpine-induced ptosis; [6]): 0.09 mg/kg | ED50 (reserpine-induced ptosis; [4]): 0.09 mg/kg | ED50 [1, 5]: 0.51 mg/kg

Cn1c[n+](C)nc1-c1cccc(F)c1 [Rn 3-F--, 3-(3-Fluorophenyl)-1,4-dimethyl-1,2,4-triazolium hydrosulfate]
LD50 (LD50): 200 to 400 mg/kg | ED50 (reserpine-induced ptosis; [4]): 0.19 mg/kg | ED50 [1, 7]: 0.34 mg/kg | ED50 [1, 5]: 0.34 mg/kg

COc1c(F)cccc1-c1n[n+](C)cn1C [3-F-2-CH3 O--]
LD50 (LD50): 100 to 200 mg/kg | ED50 (reserpine-induced ptosis; [4]): 1.31 mg/kg | ED50 [1, 5]: 2 mg/kg
